Here are results for 9 molecules from paper PMC9826768, “New polychlorinated bibenzyls from Rhododendron minutiflorum” (Natural Products and Bioprospecting, 2023).

Data set [1] concerns the target α-glucosidase. Briefly: α-glucosidase inhibitory activity (PNPG method). The settings on record: mean ± SE; acarbose as positive control. Format: biochemical. As for the experimental part:
In order to evaluate the insecticidal activities of all the isolated compounds, their toxicities on D. citri Kuwayama were tested.
According to the previously reported method, all the isolated compounds were screened for α-glucosidase inhibitory activity.

Data set [2] concerns Diaphorina citri Kuwayama. As to the kind of experiment: Insecticidal activity (toxicity) against the Asian citrus psyllid. The settings on record: for corrected mortality rate of citrus psyllid: 4th day after the test started, compound concentration higher than 50 mg/L; for LD50: against D. citri, during 6 days after treatment (calculated using observations on day 6), Probit analysis. Format: in vivo. The method, then: To avoid accidental injury, all the D. citri were carefully collected and cultured. The insecticidal activities of eight compounds were evaluated using methods described in the literature with slightly modified. […] Finally, mortality was calculated every 24 h starting on the second day of the trial.

The IC50 is the concentration that inhibits the measured activity by half. The low end stands for higher potency, the high end for lower potency. `Oc1c(Cl)cc(CCc2c(Cl)cc(Cl)c(O)c2Cl)cc1Cl` [Compound 1, 2,4,6,3′,5′-pentachloro-3,4′-dihydroxybibenzyl] returned a concentration for half-maximal inhibition (IC50) in data set [1] of 82.8 ± 4.99 µM. Take `Oc1c(Cl)cc(CCc2ccc(Cl)c(O)c2Cl)cc1Cl` [Compound 2, 2,4,3′,5′-tetrachloro-3,4′-dihydroxybibenzyl]: in data set [2], the “corrected mortality rate of citrus psyllid” value is given as “higher than 50%” and the LD50 is listed as 27.15 mg/L. `Oc1cc(CCc2cc(Cl)c(O)c(Cl)c2)c(Cl)cc1Cl` [Compound 3, 4,6,3′,5′-tetrachloro-3,4′-dihydroxybibenzyl]: the LD50 in data set [2] was 48.50 mg/L. In data set [1], this molecule gave an IC50 of 60.4 ± 1.54 µM. In data set [1], `Oc1cc(CCc2cc(Cl)c(O)c(Cl)c2)ccc1Cl` [Compound 4, 4,3′,5′-trichloro-3,4′-dihydroxybibenzyl] had an IC50 of 17.9 ± 0.74 µM. Consider `COc1cc(CCc2cc(Cl)c(O)c(Cl)c2)ccc1Cl` [Compound 5, 4,3′,5′-trichloro-4′-hydroxyl-3-methoxybibenzyl], for which, in data set [2], the “corrected mortality rate of citrus psyllid” value is “higher than 50%” and the LD50 was 17.02 mg/L. The molecule also returned an IC50 in data set [1] of 62.7 ± 6.87 µM. The like results for `COc1cc(O)c(CCC(C)(C)O)c(CCc2ccccc2)c1` [Compound 6, 3-hydroxyl-5-methoxy-2-(3′-hydroxyl-3′-methylbutyl)-bibenzyl] were, in that order, “higher than 50%”, 16.20 mg/L and 76 ± 12 µM. Turning to `CC(C)=CCc1c(O)cc(O)cc1CCc1ccccc1` [Compound 7, 3,5-dihydroxyl-2-(3′-methyl-2′-butenyl)-bibenzyl], the LD50 in data set [2] is recorded as 48.64 mg/L. Further, the IC50 in data set [1] came out at 56.7 ± 1.42 µM.

For the molecule `CC(C)=CCc1ccc(CCc2ccc(O)cc2)cc1O` [Compound 8, 3,4″-dihydroxyl-4-(3′-methyl-2′-butenyl)-bibenzyl], the half-maximal inhibitory concentration (IC50) in data set [1] was 65.4 ± 2.04 µM. For the molecule `O=C1CCC[C@@H]2[C@H]3CCCN4CCC[C@@H](CN12)[C@@H]34` [Matrine, matrine, reference compound], the LD50 in data set [2] is 11.86 mg/L.
